Results taken from patent US12357699B2, “B-cell immunotherapy in cancer treatment” (AKAMARA THERAPEUTICS, INC., priority 2018, dated 2025).

Experiments:
IGKC [1] = assay: Semi-quantitative PCR of immune activating and suppressive genes in 4T1 tumors; assay type: in vivo, Balb/c mice; details: 4T1 tumors harvested after one cycle, 20 mgPt/kg
From the text: (§1) The efficacy of IO-125 was examined in the murine triple negative breast cancer (TNBC) tumor model (4T1). 4T1 cells were subcutaneously implanted in Balb/c mice to generate tumors and treated with IO-125 or saline (control), when tumors reached an average volume of 100 mm^3. The dose administered for IO-125 was 20 mgPt/kg, with a regimen of b5d. Following one cycle of treatment, tumors were harvested and a portion of the tumor from control and IO-125 treated group was used for total RNA isolation and subsequent evaluation of immune activating and immune suppressive genes (Denkert et al., Clin Oncol. 2015; 33(9):983-91) by semi-quantitative PCR. IO-125 treatment was continued for an additional cycle, with recording of tumor volume and examination of tumors for regression.

IGKC [2] = assay: Immune biomarker expression (molecular immunophenotyping, immunohistochemistry of FFPE sections) in LLC tumors; assay type: in vivo, C57/BL6 mice
From the text: (§2) In contrast, 45% of the animals underwent complete tumor regression when the two drugs were combined. These observations illustrate that combinations of IO-125 with immune checkpoint inhibitor(s) augment tumor regression as compared to monotherapies.
Subsequently, tumors were harvested and a portion fixed in formalin.

[3] = system: genes involved in B cell differentiation and TLR activation; assay: Relative mRNA expression in splenic B cells isolated from treated mice; assay type: in vivo, Balb/c mice; details: tumor bearing treated mice (Group 1)
Procedure: Splenic B cells were isolated from Group 1 and Group 2 mice, described in Example 3. Spleen was harvested from mice (n=3) and minced into small pieces in RPMI-1640 basal media. The pieces were placed on top of a 40 mesh membrane and crushed with the back of a syringe and the single cell suspension was collected onto a 50 mL tube. The single cell suspension was washed twice with PBS to remove debris by centrifuging at 2000 rpm. Splenocytes were counted using haemocytometer and 100 million splenocytes were resuspended in 1 mL of Isolation buffer (2% FBS, […] in DPBS) and transferred to a 5 ml Polystyrene tube. The B cells were isolated from splenocytes using the EasySep Stem Cell B cell isolation kit as per manufacturers protocol. One part of the isolated B cells was used for RNA isolation, followed by relative mRNA expression levels of genes involved in B cell differentiation and TLR activation were evaluated; while the second part was used for immunodetection of specific proteins, following the manufacturer's protocol.

4T1 cells [4] = assay: Tumor rechallenge (immune memory study), re-implantation of 4T1 cells; assay type: in vivo, Balb/c mice
Procedure: 4T1 cells were subcutaneously implanted in Balb/c mice to generate tumors. When tumors reached an average volume of 100 mm^3, they were treated with IO-125 (Group 1). Two groups of Balb/c mice (non-tumor bearing) were either treated with IO-125 or saline (designated Group 2 and 3 respectively; FIG. 3A). Immune memory cells are poised to rapidly expand and induce effector functions upon recurrence, while existing in a functionally quiescent state. To verify this hypothesis, we examined immune memory in IO-125 treated tumors.

[5] = system: B cell differentiation and TLR activation markers; assay: Relative mRNA expression in naive splenic B cells cultured with conditioned media (TCM) from treated 4T1 cells; assay type: cell-based, mice; details: splenic B cells 48 hours in TCM from 4T1 cells treated 6 hours plus 42 hours
Procedure: 4T1 cells were seeded in cell culture dishes in IMDM media containing 10% FBS. The cells were treated with blank supramolecule (Vehicle) and IO-125 when they reached 60% confluence. Following a transient treatment of 6 hours, the media was removed and supplemented with fresh culture media and cells were incubated for additional 42 hours. Following treatment, the conditioned media from 4T1 cells (TCM) was collected for each treatment and filtered through 0.2 micron PES filters to obtain TCM free of cell debris. The harvested TCMs were used immediately for conditioning of B cells, isolated from naïve mice splenocytes using the EasySep Stem Cell B cell isolation kit as per manufacturers protocol. The B cells were incubated with conditioned media and harvested after 48 hours of incubation. RNA was isolated from the B cells and used for relative mRNA expression level evaluation of genes involved in B cell differentiation and TLR activation.

4T1 cells [6] = assay: 4T1 tumor growth in B cell-deficient mice (Jh−/−); assay type: in vivo; details: 4T1 tumors
Procedure: (§3) 4T1 cells were subcutaneously implanted in the mice strains mentioned and when tumors reached an average volume of 100 mm^3, they were divided into two groups. One group was kept as control and the other treated with IO-125 and tumor volume in all the animals were recorded.

4T1 cells [7] = assay: Murine triple negative breast cancer (TNBC) tumor model (4T1 s.c. in Balb/c mice); assay type: in vivo; details: 4T1 tumor-bearing Balb/c mice, 20 mgPt/kg, two cycles
From the text: as §1

LLC cells = assay: Combination of PD1 immune checkpoint inhibitor and IO-125 in immunocompetent murine NSCLC tumor model (LLC cells s.c. in C57/BL6 mice); assay type: in vivo; details: syngeneic lung cancer (LLC) bearing animals, two cycles
Procedure: The combination of a PD1 immune checkpoint inhibitor and IO-125 was evaluated in an immunocompetent murine NSCLS tumor model. The murine NSCLC tumor model was generated by subcutaneously implanting LLC cells in C57/BL6 mice. Treatment with saline (control), IO-125, immune check point inhibitor (anti-PD1 antibody, Biolegend) or combinatorial therapy (IO-125 and anti-PD1 antibody) was initiated when average tumor volume in the animals reached 100 mm^3, through i.v. administration of compounds. A schematic representation of the treatment regimen is depicted in FIG. 1A.
as §2

4T1 cells [8] = assay: 4T1 tumor growth in mice lacking functional B cells and T cells (SCID); assay type: in vivo; details: 4T1 tumors
Procedure: as §3

CC(C)CCCC(C)C1CCC2C3CC=C4CC(OCCN(CC(=O)[O-])CC(=O)[O][Pt+]5[NH]C6CCCCC6[NH]5)CCC4(C)C3CCC12C (stereo not drawn) [IO-125]
IGKC mRNA levels in tumors (FIG. 2B) (IGKC [1]): significant increase in IGKC mRNA levels | IGKC levels (FIG. 2D) (IGKC [2]; LLC tumors of treated animals, relative expression of immune biomarkers): increase in IGKC levels | immunodetection of B220 and IGKC in tumor sections (FIG. 2E) (IGKC [2]; treated versus control tumors): significantly increased expression of IGKC | expression of TLRs and CD80 in splenic B cells [3]: elevated expression of TLRs and CD80 | IGKC mRNA levels in splenic B cells (FIG. 5B) ([3]; normalized to Group 2): significant increase in IGKC mRNA levels | tumor growth after re-implantation of cancer cells, Group 1 (4T1 cells [4]; animals that had previously undergone tumor regression with treatment): no tumor growth was observed | tumor growth after implantation of 4T1 cells, Group 2 (4T1 cells [4]; non-tumor bearing Balb/c mice pre-treated, compared with saline treated mice (Group 3)): led to the growth of tumors | B cell differentiation markers and TLR activation markers, relative mRNA (FIG. 4B) [5]: substantially increased | tumor ablation in Jh−/− mice (FIG. 4C) (4T1 cells [6]): Tumor ablation did not occur | tumor growth curve (FIG. 2A) (4T1 cells [7]): complete regression of tumors | tumor growth curves (FIG. 2C) (LLC cells): significant tumor growth inhibition but no regression | tumor ablation in SCID mice (FIG. 4D) (4T1 cells [8]): Tumor ablation did not occur
